Source: patent US20250215021A1, “SYSTEMS AND METHODS UTILIZING THERANOSTIC AGENTS FOR BPCT AND BNCT FOR TARGETED CANCER TREATMENT” (University of Virginia Patent Foundation, priority 2022, published 2025)

Test system: MCF-10A epithelial cells
Assay: Cell uptake in MCF-10A (normal cell control)
Format: cell-based
Conditions: all concentrations tested
Protocol: Referring now to FIGS. 6A-6B, after confirming the structure and purity of the compound, further biological evaluation was performed. Preferential cancer cell uptake was evaluated in human breast cancer cells MCF-7 compared with MCF-10A epithelial cells. […] The cancer cell uptake was also confirmed by confocal microscopy. The concentration and constitutional stability of the compound in cancer cells was established by lysing the MCF-7 incubated with 5 μM of compound for 4 hrs. […] Inherent toxicity of the compound to both normal and cancer cells was evaluated using HMCD and 1-amino-1-carbadodecaborate as controls.

`CC1(C)C(/C=C/C2=C(Cl)C(=C/C=C3/N(CCCCCC(=O)O)c4ccccc4C3(C)C)/CCC2)=[N+](CCCCS(=O)(=O)[O-])c2ccccc21` [parent HMCD] was tested. Which “uptake in MCF-10A cells” value did it give?
The value was “no or poor uptake”.
